Measured values taken from the NIST ThermoML archive (doi:10.1021/acs.jced.9b00449).

Assay: mn = molality of the nth substance listed, in mol/kg
Details: 100 kPa, Liquid; for kinematic viscosity: Capillary tube (Ostwald / Ubbelohde) method; for mass density: Pycnometric method

[K+].[O]=[V](=[O])[O-] [potassium vanadate] + O
Details	kinematic viscosity [m2/s]	mass density [kg/m3]
293.15 K, m1 = 0.615	1.03e-06	1063
303.15 K, m1 = 0.874	8.5e-07	1083
313.15 K, m1 = 1.223	7.51e-07	1126
323.15 K, m1 = 1.884	7.42e-07	1171
